Test results: patent US6656734B1, “Compositions for the delivery of polynucleotides to cells” (Transgene S.A., priority 1997, dated 2003)
“Also recorded” adds a separate entry of the source.

Tests used:
[1] = tested on: plasmid DNA (pTG11033); assay: Plasmid DNA melting curves; assay type: physicochemical; settings: 50 μg/ml pTG11033 in 20 mM HEPES pH 7.5, 0-20% DPSO, 35-100° C., 260 nm; versus DNA alone
Description: Plasmid DNA melting curves were recorded on a thermostated UV/Visible CARY/VARIAN spectrophotometer (sofware version: 3.04) using 2 quartz cuvettes (L=1cm) with Teflon stopper.

[2] = tested on: pulmonary cells; assay: Luciferase activity in lungs of mice after intratracheal injection of plasmid/polar compound compositions; assay type: in vivo; settings: B6/SJLF1 mice
Description: The chosen polynucleotide, i.e. the plasmid pTG11033 (FIG. 1), encompasses the gene encoding luciferase placed under the control of the CMV promoter, intron 1 of the HMG gene and the SV40 polyA termination signal. The plasmid DNA contained in 250 μl of a 1 mg/ml solution of purified plasmid (purified by centrifugation in a cesium chloride gradient) is precipitated with ethanol. After having been centrifuged, washed with 70% ethanol and dried, the nucleic acid pellet is taken up in a given volume of DESO or DPSO and of 20 mM Hepes buffer, pH 7.5, in order to give the following compositions as shown in Table I below: The 8-week-old female mice (B6/SJLF1, Iffa Credo) were anaesthetized by means of intraperitoneal injection (physiological saline, […] 1000, xylazine/ROMPUN). […] Each composition is injected into at least three different mice. The expression levels are compared with those obtained after injecting 50 μg of DNA in 50 μl of 20 mM Hepes, pH 7.5, without any addition of polar compound. A control in which the mice are not injected is also included in the protocol. The mice are sacrificed two days after the injections. The lungs and the trachea are treated independently. The tissues are frozen in liquid nitrogen and stored at -80° C. In order to measure the luciferase activity, the tissues are ground up mechanically using a pestle in a mortar which is placed on dry ice. 500 μl or 200 μl of a lysis buffer (Promega) are added to the tissue fragments obtained from the lungs or the trachea, respectively, and the solution is subjected to three steps of freezing/thawing. The cell debris is removed by centrifugation and the luciferase activity (in RLU/min, relative light unit per minute) is measured on 20 μl of supernatant, in accordance with the supplier's (Promega) instructions, by adding 100 μl of reagent and measuring the activity by means of luminescence. The luciferase activity which is measured is standardized in relation to the quantity of protein with the aid of a standard scale which is generated using commercially available luciferase (Promega). […]

[3] = tested on: airways cell; assay: Theophylline pretreatment before airway delivery of a composition comprising DPSO; assay type: in vivo; settings: oral 0.3 mg theophylline to mice about 30 min before composition comprising DPSO
Excerpt: Finally, the invention relates to a cell which is transfected with a composition as previously defined, in particular a prokaryotic cell, or a yeast or eukaryotic cell, in particular an animal cell, in particular a mammalian cell, more especially a cancerous cell. According to a preferred embodiment of the invention, the said cell is an airways cell, more especially a tracheal or pulmonary cell, advantageously a cell of the respiratory epithelium. In the case of airway delivery, prior administration of bronchodilator compounds (for example, theophylline) could be advantageous.

Q: Which results are given for `CCC[S+]([O-])CCC` [DPSO, di-n-propyl sulphoxide]?
A: Absorbance change upon DNA melting [1]: lowered; temperature at which absorbance change (DNA melting) occurs [1]: higher temperature; measured level of expression of the luciferase-encoding gene on increasing the percentage of the compound ([2]; 50 μg DNA, FIG. 4): improve the measured level of expression; expression of the luciferase gene in the pulmonary tissues ([2]; 50 μg DNA/50 μl, 15% (v/v) polar compound, sacrificed two days after injection, compared with polynucleotide alone): increases expression; also recorded: markedly improved; transfection of the pulmonary cells (luciferase expression) ([2]; 50 μg pTG11033/50 μl, 10 or 15% polar compound, compared with polynucleotide on its own): best results

Q: With `Cn1c(=O)c2[nH]cnc2n(C)c1=O` [theophylline] as the molecule, how does the “expression level compared with administration without pretreatment” value [3] read?
A: Its value is “slightly increase of the expression level”.
